The subject of the first assay is C57BL/6 mice. The assay can be described thus: In vivo expression level of Luciferase-mRNA delivered by intravenous injection (bioluminescence imaging). As to conditions: mRNA-loaded nanoparticles, compounds of Example 1; intravenous (tail vein), 5 μg Luciferase-mRNA, 6 hours. As to the method: Luciferase-mRNA was used as an mRNA model; and the cationic lipid analogues of Examples 1-5 were used to prepare drug-loaded nanoparticles according to the method of Example 6.
200 μL of nanoparticles containing 5 μg Luciferase-mRNA or the drug-loaded nanoparticles prepared above were injected into tail veins of 6-8 week-old C57BL/6 mice, and 200 μL of 1×PBS solution containing 3 mg D-Luciferin potassium salt was intraperitoneally injected into the mice 6 hours later. After waiting for 10 minutes, an in vivo expression level of the mRNA was evaluated by bioluminescence imaging.
For `CCCCC/C=C\C/C=C\CCCCCCCC(=O)N(CCCN(C)C)C(C(=O)NCCCCCCCCCCCCCC)C(CC)CCCC` (centres unmarked) [A4I10R2C18-2], the “Fluorescence intensity of liver” value is on record as 1.15E+06. As for `CCCCC/C=C\C/C=C\CCCCCCCC(=O)N(CCCN(C)C)C(C(=O)NCCCCCCCCCCCCCC)C(CC)CCCC` (centres unmarked) [A4I14R2C18-2], the “Fluorescence intensity of liver” value was found to be 9.02E+05.

With `CC/C=C\C/C=C\C/C=C\CCCCCCCC(=O)N(CCN(C)C)C(C(=O)NCCCCCCCCCCCCCCCCCC)C(CC)CCCC` (centres unmarked) [A4I18R1C18-3], the “Fluorescence intensity of liver” value amounted to 3.88E+06. Turning to `CCCCCCCCCCCCCCCCCCNC(=O)C(C(CC)CCCC)N(CCN(C)C)C(=O)CCCCCCCCCCCCCCCCC` (centres unmarked) [A4I18R1C18], the “Fluorescence intensity of liver” value is given as 3.65E+05.

On to `CCCCCCCCCCCCC#CC#CCCCCCCCCC(=O)N(CCN(C)C)C(C(=O)NCCCCCCCCCCCCCCCCCC)C(CC)CCCC` (centres unmarked) [A4I18R1C23], for which the “Fluorescence intensity of liver” value was 1.78E+06. In turn, `CC/C=C\C/C=C\C/C=C\CCCCCCCC(=O)N(CCCN(C)C)C(C(=O)NCCCCCCCCCCCCCCCCCC)C(CC)CCCC` (centres unmarked) [A4I18R2C18-3] gave a Bioluminescence intensity of 1.36E+07. Still for that read-out and setting: in the case of `CCCCCCCCCCCCC#CC#CCCCCCCCCC(=O)N(CCCN(C)C)C(C(=O)NCCCCCCCCCCCCCCCCCC)C(CC)CCCC` (centres unmarked) [A4I18R2C23] it was 1.40E+07; in that of `CCCCCCCCCCCCC#CC#CCCCCCCCCC(=O)N(CCCN(CC)CC)C(C(=O)NCCCCCCCCCCCCCCCCCC)C(CC)CCCC` (centres unmarked) [A4I18R3C18-3], 1.32E+07. Consider `CCCCCCCCCCCCCCCCCCNC(=O)C(C(CC)CCCC)N(CCCN(CC)CC)C(=O)CCCCCCCCCCCCCCCCC` (centres unmarked) [A4I18R3C18], for which the “Fluorescence intensity of liver” value stood at 1.69E+06. On to `CCCCCCCCCCCCC#CC#CCCCCCCCCC(=O)N(CCCN(CC)CC)C(C(=O)NCCCCCCCCCCCCCCCCCC)C(CC)CCCC` (centres unmarked) [A4I18R3C23], for which the “Fluorescence intensity of liver” value is listed as 7.81E+06. On the same count and under the same terms, in the case of `CCCCC/C=C\C/C=C\CCCCCCCC(=O)N(CCN1CCOCC1)C(C(=O)NCCCCCCCCCCCCCCCCCC)C(CC)CCCC` (centres unmarked) [A4I18R4C18-2] it was 1.25E+04.

With `CCCCC/C=C\C/C=C\CCCCCCCC(=O)N(CCN(C)CC)C(C(=O)NCCCCCCCCCCCCCCCCCC)C(CC)CCCC` (centres unmarked) [A4I18R6C18-2], the “Fluorescence intensity of liver” value worked out at 3.64E+04. On the same count and under the same terms, in the case of `CCCCC/C=C\C/C=C\CCCCCCCC(=O)N(CCCN(C)c1ccccc1)C(CCCCC)C(=O)NCCCCCCCCCCCCCCCCCC` (centres unmarked) [A4I18R7C18-2] it was 5.22E+03; in that of `CCCCC/C=C\C/C=C\CCCCCCCC(=O)N(CCN(CC)CC)C(C(=O)NCCCCCCCCCCCCCCCCCC)C(CC)CCCC` (centres unmarked) [A4I18R8C18-2], 2.48E+04. As for `CCCCC/C=C\C/C=C\CCCCCCCC(=O)N(CCCN1CCN(C)CC1)C(CCCCC)C(=O)NCCCCCCCCCCCCCCCCCC` (centres unmarked) [A4I18R9C18-2], the “Fluorescence intensity of liver” value is 2.55E+03. As to `CCCCC/C=C\C/C=C\CCCCCCCC(=O)N(CCN1CCCC1)C(CCCCC)C(=O)NCCCCCCCCCCCCCCCCCC` (centres unmarked) [A4I18R10C18-2], the “Fluorescence intensity of liver” value came out at 7.89E+05. The same measure, in the same setting: next, `CCCCC/C=C\C/C=C\CCCCCCCC(=O)N(CCC1CCCN1C)C(CCCCC)C(=O)NCCCCCCCCCCCCCCCCCC` (centres unmarked) [A4I18R11C18-2]: 1.02E+06.

With `CCCCC/C=C\C/C=C\CCCCCCCC(=O)N(CCCN(C)C)C(C(=O)NCCCCCCCCCCCCCCCCCC)C(C)CCC=C(C)C` (centres unmarked) [A5I18R2C18-2], the “Fluorescence intensity of liver” value was determined as 8.72E+05.

The assay is the same for the next values; noted with them: mRNA-loaded nanoparticles, compounds of Example 2; intravenous (tail vein), 5 μg Luciferase-mRNA, 6 hours.
As for `CCCCC/C=C\C/C=C\CCCCCCCC(=O)N(CCN1CCCCCC1)C(C(=O)NCCN(C)CCNC(=O)C(C(CC)CCCC)N(CCN1CCCCCC1)C(=O)CCCCCCC/C=C\C/C=C\CCCCC)C(CC)CCCC` (centres unmarked) [A4I4R13C18-2], the “Fluorescence intensity of spleen” value stood at 1.19E+04. Take `CCCCCCCCCCCCCCCCCC(=O)N(CCN1CCCCCC1)C(C(=O)NCCN(C)CCNC(=O)C(C(CC)CCCC)N(CCN1CCCCCC1)C(=O)CCCCCCCCCCCCCCCCC)C(CC)CCCC` (centres unmarked) [A4I4R13C18]: the “Fluorescence intensity of spleen” value was determined as 2.79E+03.

Consider `CCCCCCCC/C=C\CCCCCCCC(=O)N(CCC)C(C(=O)NCCN(C)CCNC(=O)C(C(CC)CCCC)N(CCC)C(=O)CCCCCCC/C=C\CCCCCCCC)C(CC)CCCC` (centres unmarked) [A4I4R21C18-1], for which the “Fluorescence intensity of spleen” value is recorded as 3.02E+04. As for `CCCCC/C=C\C/C=C\CCCCCCCC(=O)N(CCC)C(C(=O)NCCN(C)CCNC(=O)C(C(CC)CCCC)N(CCC)C(=O)CCCCCCC/C=C\C/C=C\CCCCC)C(CC)CCCC` (centres unmarked) [A4I4R21C18-2], the “Fluorescence intensity of spleen” value worked out at 1.91E+04. Regarding `CCCCCCCCCCCCCCCCCC(=O)N(CCC)C(C(=O)NCCN(C)CCNC(=O)C(C(CC)CCCC)N(CCC)C(=O)CCCCCCCCCCCCCCCCC)C(CC)CCCC` (centres unmarked) [A4I4R21C18], the “Fluorescence intensity of spleen” value came out at 2.09E+04. In the case of `CCCCCCCC/C=C\CCCCCCCC(=O)N(CCOC)C(C(=O)NCCN(C)CCNC(=O)C(C(CC)CCCC)N(CCOC)C(=O)CCCCCCC/C=C\CCCCCCCC)C(CC)CCCC` (centres unmarked) [A4I4R23C18-1], the “Fluorescence intensity of spleen” value was found to be 6.08E+04. `CCCCCCCC/C=C\CCCCCCCC(=O)N(CCCN(C)C)C(C(=O)NCCN(C)CCNC(=O)C(C1CC1)N(CCCN(C)C)C(=O)CCCCCCC/C=C\CCCCCCCC)C1CC1` (centres unmarked) [A21I4R2C18-1] gave a Bioluminescence intensity of 8.38E+02. For the compound `CCCCC/C=C\C/C=C\CCCCCCCC(=O)N(CCCN(C)C)C(C(=O)NCCN(C)CCNC(=O)C(C1CC1)N(CCCN(C)C)C(=O)CCCCCCC/C=C\C/C=C\CCCCC)C1CC1` (centres unmarked) [A21I4R2C18-2], the “Fluorescence intensity of spleen” value is 1.83E+03. Same read-out and setting: next, `CCCCCCCCCCCCCCCCCC(=O)N(CCCN(C)C)C(C(=O)NCCN(C)CCNC(=O)C(C1CC1)N(CCCN(C)C)C(=O)CCCCCCCCCCCCCCCCC)C1CC1` (centres unmarked) [A21I4R2C18]: 1.04E+03. With `CCCCCCCC/C=C\CCCCCCCC(=O)N(CCN1CCCCCC1)C(C(=O)NCCN(C)CCNC(=O)C(C1CC1)N(CCN1CCCCCC1)C(=O)CCCCCCC/C=C\CCCCCCCC)C1CC1` (centres unmarked) [A21I4R13C18-1], the Bioluminescence intensity turned out to be 9.59E+02. Still for that read-out and setting: in the case of `CCCCC/C=C\C/C=C\CCCCCCCC(=O)N(CCN1CCCCCC1)C(C(=O)NCCN(C)CCNC(=O)C(C1CC1)N(CCN1CCCCCC1)C(=O)CCCCCCC/C=C\C/C=C\CCCCC)C1CC1` (centres unmarked) [A21I4R13C18-2] it was 8.67E+02. Take `CCCCCCCCCCCCCCCCCC(=O)N(CCN1CCCCCC1)C(C(=O)NCCN(C)CCNC(=O)C(C1CC1)N(CCN1CCCCCC1)C(=O)CCCCCCCCCCCCCCCCC)C1CC1` (centres unmarked) [A21I4R13C18]: the “Fluorescence intensity of spleen” value stood at 1.12E+03. Turning to `CCCCCCCC/C=C\CCCCCCCC(=O)N(CCC)C(C(=O)NCCN(C)CCNC(=O)C(C1CC1)N(CCC)C(=O)CCCCCCC/C=C\CCCCCCCC)C1CC1` (centres unmarked) [A21I4R21C18-1], the “Fluorescence intensity of spleen” value amounted to 8.50E+03.

Consider `CCCCC/C=C\C/C=C\CCCCCCCC(=O)N(CCC)C(C(=O)NCCN(C)CCNC(=O)C(C1CC1)N(CCC)C(=O)CCCCCCC/C=C\C/C=C\CCCCC)C1CC1` (centres unmarked) [A21I4R21C18-2], for which the “Fluorescence intensity of spleen” value turned out to be 1.39E+03. As to `CCCCCCCCCCCCCCCCCC(=O)N(CCC)C(C(=O)NCCN(C)CCNC(=O)C(C1CC1)N(CCC)C(=O)CCCCCCCCCCCCCCCCC)C1CC1` (centres unmarked) [A21I4R21C18], the “Fluorescence intensity of spleen” value was determined as 5.31E+03.

On to `CCCCCCCC/C=C\CCCCCCCC(=O)N(CCO)C(C(=O)NCCN(C)CCNC(=O)C(C1CC1)N(CCO)C(=O)CCCCCCC/C=C\CCCCCCCC)C1CC1` (centres unmarked) [A21I4R22C18-1], for which the “Fluorescence intensity of spleen” value is on record as 1.76E+04.

Take `CCCCC/C=C\C/C=C\CCCCCCCC(=O)N(CCO)C(C(=O)NCCN(C)CCNC(=O)C(C1CC1)N(CCO)C(=O)CCCCCCC/C=C\C/C=C\CCCCC)C1CC1` (centres unmarked) [A21I4R22C18-2]: the “Fluorescence intensity of spleen” value turned out to be 1.26E+03. With `CCCCCCCC/C=C\CCCCCCCC(=O)N(CCOC)C(C(=O)NCCN(C)CCNC(=O)C(C1CC1)N(CCOC)C(=O)CCCCCCC/C=C\CCCCCCCC)C1CC1` (centres unmarked) [A21I4R23C18-1], the “Fluorescence intensity of spleen” value is listed as 2.28E+04. In the case of `CCCCC/C=C\C/C=C\CCCCCCCC(=O)N(CCOC)C(C(=O)NCCN(C)CCNC(=O)C(C1CC1)N(CCOC)C(=O)CCCCCCC/C=C\C/C=C\CCCCC)C1CC1` (centres unmarked) [A21I4R23C18-2], the “Fluorescence intensity of spleen” value was 6.97E+04. Consider `CCCCCCCCCCCCCCCCCC(=O)N(CCOC)C(C(=O)NCCN(C)CCNC(=O)C(C1CC1)N(CCOC)C(=O)CCCCCCCCCCCCCCCCC)C1CC1` (centres unmarked) [A21I4R23C18], for which the “Fluorescence intensity of spleen” value was 2.65E+04. For `CCCCCCCC/C=C\CCCCCCCC(=O)N(CCCN(C)C)C(C(=O)NCCN(C)CCNC(=O)C(C1CCCCC1)N(CCCN(C)C)C(=O)CCCCCCC/C=C\CCCCCCCC)C1CCCCC1` (centres unmarked) [A23I4R2C18-1], the “Fluorescence intensity of spleen” value was 1.78E+03. As to `CCCCC/C=C\C/C=C\CCCCCCCC(=O)N(CCCN(C)C)C(C(=O)NCCN(C)CCNC(=O)C(C1CCCCC1)N(CCCN(C)C)C(=O)CCCCCCC/C=C\C/C=C\CCCCC)C1CCCCC1` (centres unmarked) [A23I4R2C18-2], the “Fluorescence intensity of spleen” value is given as 2.18E+03. With `CCCCCCCCCCCCCCCCCC(=O)N(CCCN(C)C)C(C(=O)NCCN(C)CCNC(=O)C(C1CCCCC1)N(CCCN(C)C)C(=O)CCCCCCCCCCCCCCCCC)C1CCCCC1` (centres unmarked) [A23I4R2C18], the Bioluminescence intensity was 5.71E+02. With `CCCCCCCC/C=C\CCCCCCCC(=O)N(CCN1CCCCCC1)C(C(=O)NCCN(C)CCNC(=O)C(C1CCCCC1)N(CCN1CCCCCC1)C(=O)CCCCCCC/C=C\CCCCCCCC)C1CCCCC1` (centres unmarked) [A23I4R13C18-1], the Bioluminescence intensity was 6.61E+02. Take `CCCCC/C=C\C/C=C\CCCCCCCC(=O)N(CCN1CCCCCC1)C(C(=O)NCCN(C)CCNC(=O)C(C1CCCCC1)N(CCN1CCCCCC1)C(=O)CCCCCCC/C=C\C/C=C\CCCCC)C1CCCCC1` (centres unmarked) [A23I4R13C18-2]: the “Fluorescence intensity of spleen” value was determined as 9.46E+03. `CCCCCCCCCCCCCCCCCC(=O)N(CCN1CCCCCC1)C(C(=O)NCCN(C)CCNC(=O)C(C1CCCCC1)N(CCN1CCCCCC1)C(=O)CCCCCCCCCCCCCCCCC)C1CCCCC1` (centres unmarked) [A23I4R13C18] registered a Bioluminescence intensity of 7.89E+02.

For the origin of these results see US20250161216A1, “CATIONIC LIPID ANALOGUES, COMPOSITIONS AND USES THEREOF” (GUANGZHOU LIDE BIOMEDICINE TECHNOLOGY CO., LTD., priority 2022, published 2025).
